Results on 1 compound are retold here after ChEMBL document CHEMBL4414607, “Protein Stability Effects in Aggregate-Based Enzyme Inhibition” (J Med Chem, 2019).

For experiment [1], the system named is Bacteria. The experiment can be described thus: Binding affinity to bacterial Beta-lactamase TEM-1 D179G mutant assessed as change in melting temperature at 100-fold molar excess compound concentration relative to apo-enzymes by SYPRO Orange dye based differential scanning fluorimetry.
In experiment [2] the test system is Bacteria. The experiment can be described thus: Binding affinity to bacterial Beta-lactamase TEM-1 M182T/G238S mutant assessed as change in melting temperature at 100-fold molar excess compound concentration relative to apo-enzymes by SYPRO Orange dye based differential scanning fluorimetry.
The subject of experiment [3] is Bacteria.
For experiment [4], the target named is Beta-lactamase TEM (Bacteria) (UniProt P62593). The experiment can be described thus: Binding affinity to bacterial wild type Beta-lactamase TEM-1 assessed as change in melting temperature at 100-fold molar excess compound concentration relative to apo-enzymes by SYPRO Orange dye based differential scanning fluorimetry.
Chain of Beta-lactamase TEM (Bacteria) (P62593 whole entry): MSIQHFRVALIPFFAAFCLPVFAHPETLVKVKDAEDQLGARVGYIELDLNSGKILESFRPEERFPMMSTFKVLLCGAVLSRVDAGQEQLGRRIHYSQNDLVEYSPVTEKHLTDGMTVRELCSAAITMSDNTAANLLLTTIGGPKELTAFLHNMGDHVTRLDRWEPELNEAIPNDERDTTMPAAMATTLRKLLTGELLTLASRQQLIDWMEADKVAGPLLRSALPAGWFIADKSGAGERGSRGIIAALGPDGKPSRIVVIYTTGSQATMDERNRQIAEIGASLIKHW
In experiment [5] the test system is Bacteria. In words: Binding affinity to bacterial Beta-lactamase TEM-1 G238S mutant assessed as change in melting temperature at 100-fold molar excess compound concentration relative to apo-enzymes by SYPRO Orange dye based differential scanning fluorimetry.
The test system of experiment [6] is Bacteria. The experiment can be described thus: Binding affinity to bacterial Beta-lactamase TEM-1 M182T mutant assessed as change in melting temperature at 100-fold molar excess compound concentration relative to apo-enzymes by SYPRO Orange dye based differential scanning fluorimetry.

Take `CO[C@@]1(NC(=O)[C@H](C(=O)O)c2ccc(O)cc2)C(=O)N2C(C(=O)O)=C(CSc3nnnn3C)CO[C@@H]21`: the ΔTm in the experiment with Bacteria [1] is 2.9 °C; with Bacteria [2] it was -0.7 °C; with Bacteria [3], -3.3 °C; in experiment [4], -4.5 °C; in the experiment on Bacteria [5], -1.9 °C; in the experiment on Bacteria [6], -4.1 °C.
